Assays:
Rats = assay: Animal models in Rats (haloperidol or reserpine catalepsy, reserpine palpebral ptosis, apomorphine and haloperidol stereotypies); assay type: in vivo; settings: inferred from catalepsy, ptosis and stereotypy models
[1] = test system: PTZ induced behavioral effects in mice; assay: Antagonism of Pentylenetetrazole (PTZ) induced behavioral effects in mice; assay type: in vivo; settings: compounds 50 to 200 mg/kg (ip), PTZ 10 to 70 mg/kg (ip)
Protocol: In good agreement with the above pharmacological properties, GS, GP, GL and PG, at doses of 50 to 200 mg/kg, intraperitoneal (ip), in mice antagonized all the behavioral effects (in mice) corresponding to the symptoms, in humans, announcing the development of the neurodegenerative and neurodevelopmental diseases, i.e., anxiety, fear, social disconnection, agressivity, compulsive reactions, hypermotility, stereotypic activity, pain, seizures and lethargy, appearing at various degrees according to the amplitude of the Glutamate/GABA imbalance and to the brain regions (Basal Ganglia, Hippocampus, Cortex) affected by the above imbalance. Indeed, all the above behavioral effects (obtained, in mice, by administration of the GABAergic antagonist Pentylenetetrazole (PTZ) at 10 to 70 mg/kg, (ip): with 10 to 40 mg/kg (ip) giving fear, anxiety, social disconnection, and agressivity, hypermotility and stereotypic activity—the latter being better expressed by previous (reserpine induced) hypersensibilisation of the brain DA receptors—and seizures (obtained at 50 to 70 mg/kg (ip) of PTZ), were antagonized by GS, GP, GL, and PG at 50 to 200 mg/kg (ip).

Lipophilicity = assay type: physicochemical; settings: more specifically for GS, GP and GL
GABA receptors = assay: Affinity for the GABA receptors; assay type: binding

Row | Structure (SMILES) | preferential brain region of action (Rats) | behavioral effects obtained by PTZ (fear, anxiety, social disconnection, agressivity, hypermotility, stereotypic activity, seizures) [1] | lipophilicities (Lipophilicity) | affinities for the GABA receptors (GABA receptors)
1 | CCCCC/C=C\C/C=C\CCCCCCCC(=O)NCCCC(=O)O [GL, GABAlinoleamide] | preferentially acting in the striatum | antagonized | high lipophilicities | low affinities
2 | CCCCCCCCCCCCCCCC(=O)NCCCC(=O)O [GP, GABApalmitamide] | preferentially acting in the striatum | antagonized | high lipophilicities | low affinities
3 | CCCCCCCCCCCCCCCCCC(=O)NCCCC(=O)O [GS, GABAstearamide] | preferentially acting in substantia nigra | antagonized | high lipophilicities | low affinities
4 | NC(=O)CCC/N=C(\c1ccc(Cl)cc1)c1cc(F)ccc1O [PG, reference compound] | preferentially acting in substantia nigra | antagonized | high lipophilicities | low affinities
